Patent publication US5401726A, “2'methylidenepyrimidine nucleoside compounds, their use and method for production thereof” (Yoshitomi Pharaceutical Industries, Ltd., priority 1988, dated 1995)
Values after ≈ are worked out from the molar mass of the structure shown.

Legend:
[1] = system: HL60; human promyelocytic leukemia; test: MTT cytotoxicity, in vitro cell growth, HL60; format: cell-based; settings: HL-60, 72 hr, read-out: IC50 (concentration showing 50% cytotoxity)
Protocol: (§1) Effect of the compounds on in vitro cell growth of various tumor cell lines:
(§2) The assay of cytotoxicity is dependent on the cellular reduction of MTT [3'-(4,5-dimethylthiazol-2-yl)-2,5-diphenyltetrazolium bromide] by the mitochondrial dehydrogenase of viable cells to a blue formazan product which can be measured spectrophotometrically. Cell suspension, 100 μl, containing 10^4 tumor cells with or without test sample was incubated for 72 hr in 5% CO2 -95% air at 37° C. in 96 well microculture plates (Falcol 3072). The 10 μl of MTT (5 mg/ml) in saline was added to each culture well and incubated for 4 hr at 37° C. The formazan crystals were solubilized by the addition of 100 μl of 10% SDS/0.01N HCl to each well, and incubated for 24 hr at 37° C. The plates were then read at 570 nm on the plate reader. The percentage of cytotoxicity was calculated from the formula: [formula]
(§3) 2 '-Deoxy-2'-methylidene-5-fluorocytidine was dissolved in distilled water, and diluted in RPM1 1640 medium. Tumor cell lines were maintained in RPM1 1640 medium (Nissui Seiyaku Co., Ltd., Tokyo, Japan).
(§4) IC50 values gave the concentrations showing the 50% cytotoxity.

[2] = system: CCRF-CEM; human T cell leukemia; test: MTT cytotoxicity, in vitro cell growth, CCRF-CEM; format: cell-based; settings: 72 hr, read-out: IC50 (concentration showing 50% cytotoxity)
Protocol: as §1, §2, §3, §4

B16; mouse melanoma = test: MTT cytotoxicity, in vitro cell growth, B16; format: cell-based; settings: 72 hr, read-out: IC50 (concentration showing 50% cytotoxity)
Protocol: as §1, §2, §3, §4

[3] = system: PC13; human lung large cell carcinoma; test: MTT cytotoxicity, in vitro cell growth, PC13; format: cell-based; settings: PC-13, 72 hr, read-out: IC50 (concentration showing 50% cytotoxity)
Protocol: as §1, §2, §3, §4

[4] = solubility in saline at 25 mg/ml, room temperature; format: physicochemical
L1210/c; mouse leukemia = test: MTT cytotoxicity, in vitro cell growth, L1210/c; format: cell-based; settings: 72 hr, read-out: IC50 (concentration showing 50% cytotoxity)
Protocol: as §1, §2, §3, §4

[5] = system: MOLT4; human T cell leukemia; test: MTT cytotoxicity, in vitro cell growth, MOLT4; format: cell-based; settings: MOLT-4, 72 hr, read-out: IC50 (concentration showing 50% cytotoxity)
Protocol: as §1, §2, §3, §4

[6] = system: U937; human histiocytic leukemia; test: MTT cytotoxicity, in vitro cell growth, U937; format: cell-based; settings: U-937, 72 hr, read-out: IC50 (concentration showing 50% cytotoxity)
Protocol: as §1, §2, §3, §4

[7] = solubility (general statement); format: physicochemical; settings: with respect to pharmaceutical production

solubility in saline [4] | solubility [7] | Compound | IC50 [1] [mg/L] | IC50 [2] [mg/L] | IC50 (B16; mouse melanoma) [mg/L] | IC50 [3] [mg/L] | IC50 (L1210/c; mouse leukemia) [mg/L] | IC50 [5] [mg/L] | IC50 [6] [mg/L]
easily soluble |  | C=C1[C@H](n2cc(F)c(N)nc2=O)O[C@H](CO)[C@H]1O [Example 1, 2'-deoxy-2'-methylidene-5-fluorocytidine] | 0.04 (≈ 0.156 µM) | 0.14 (≈ 0.544 µM) | 6.9 (≈ 26.8 µM) | 1 (≈ 3.89 µM) | 0.33 (≈ 1.28 µM) | 0.036 (≈ 0.14 µM) | 0.44 (≈ 1.71 µM)
not soluble | inferior in solubility | C=C1[C@H](n2ccc(N)nc2=O)O[C@H](CO)[C@H]1O [2'-deoxy-2'-methylidenecytidine, reference compound] |  |  |  |  |  |  | 
